The record followed here is ChEMBL document CHEMBL1201862, “PubChem BioAssay data set” (2004).

Assay [1] deals with T1, Beta-galactosidase (Escherichia coli, UniProt Q8VNN2). Kind of assay: Dose response counterscreen for EBI2 assay utilizing the enzyme, b-galactosidase. The assay is classed as functional. On the technique in general: A counterscreen serves to expose hits that act by an unwanted route or on another target.
A further assay concerns the target Bcl-2-related protein A1 (Mus musculus, UniProt Q07440). The assay is classed as functional.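 Note: confirmatory dose–response counterscreen on Bfl-1, used to check hits from a UBC13 polyubiquitin inhibitor campaign.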
Assay [2] concerns the target T2, Ubiquitin-conjugating enzyme E2 N (Homo sapiens, UniProt P61088).
T2 sequence (P61088 whole entry): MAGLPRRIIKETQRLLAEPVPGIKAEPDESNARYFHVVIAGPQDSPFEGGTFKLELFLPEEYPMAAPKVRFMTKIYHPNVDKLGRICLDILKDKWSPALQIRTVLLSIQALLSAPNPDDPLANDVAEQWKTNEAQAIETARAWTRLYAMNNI
The assay is classed as functional.

Assay [3] concerns the target T2, Ubiquitin-conjugating enzyme E2 N. In kind it is functional. The source holds these as a separate data set.
Assay [4] deals with T3, E3 ubiquitin-protein ligase XIAP (Homo sapiens, UniProt P98170). Briefly: small molecules displacing peptide from XIAP – biochemical, IAP family, fluorescence polarization (AID 1018). The assay is classed as functional. A general note: In fluorescence polarisation assays a small probe gives low polarisation when free and higher when bound to something large.
The target in assay [5] is T3, E3 ubiquitin-protein ligase XIAP. Kind of assay: Counter Screen using XIAP-Bir3 for Chemical Antagonists of Bir1/2 domains of IAP-family anti-apoptotic proteins. [Related pubchem assays (depositor defined):AID1018, AID1449, AID1514, AID1638, AID1749, AID1750, AID488957, AID488963].
The target of assay [6] is T4, Fatty acid synthase (Homo sapiens, UniProt P49327). Briefly: inhibition of human FAS-TE enzyme activity – biochemical, kinetic fluorescence intensity, dose response (AID 624326).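 Note: rate of fluorescence rise from hydrolysis of a fluorogenic O-methyl fluorescein ester substrate.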 The assay is classed as functional.
Assay [7] concerns the target T4, Fatty acid synthase. Kind of assay: inhibition of human FAS-TE enzyme activity – biochemical, endpoint fluorescence intensity, uHTS hits, dose response (AID 624327).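 Note: fluorescence from hydrolysis of an O-methyl fluorescein acyl ester substrate by the enzyme.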 In kind it is functional.
The target in assay [8] is G-protein coupled receptor 55 (Homo sapiens, UniProt Q9Y2T6). Briefly: inhibition of LPI-stimulated GPR55 beta-arrestin translocation – imaging, U2OS, beta-arrestin-GFP, LPI agonist, primary screen (AID 2013).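 Note: antagonist potency measured as reduced agonist-driven arrestin aggregation.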 The assay is classed as functional.
Assay [9] concerns the target Delta-type opioid receptor (Homo sapiens, UniProt P41143). Briefly: SAR Analysis of Antagonists of the DOR Receptor using an Image-Based Assay - Set 3. [Related pubchem assays (depositor defined):AID1777, AID1785]. The assay is classed as functional.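 Note: U2OS cells expressing DOR1 and beta-arrestin GFP stimulated with 100 nM SNC80; imaging of GFP-tagged beta-arrestin moving into spots after receptor activation.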
Assay [10] deals with T5, Kappa-type opioid receptor (Homo sapiens, UniProt P41145). Kind of assay: SAR analysis of Antagonists of the Kappa Opioid Receptor (KOR) using an Image-Based Assay - Set 3. [Related pubchem assays (depositor defined):AID1777, AID1785]. The assay is classed as functional.
Assay [11] has as its target T5, Kappa-type opioid receptor. Briefly: SAR analysis of small molecule antagonists of the kappa opioid receptor via a luminescent beta-arrestin assay - Set 3. [Related pubchem assays (depositor defined):AID1777, AID1778, AID1785, AID1786, AID1966, AID2133, AID2136, AID2285, AID2495]. The assay is classed as functional.
For the next assay, the target named is Mu-type opioid receptor (Homo sapiens, UniProt P35372). Briefly: SAR Analysis of Antagonists of the MOR Receptor using an Image-Based Assay - Set 3. [Related pubchem assays (depositor defined):AID1777, AID1785, AID1786, AID1966, AID2133, AID2136, AID2284, AID2285, AID2420]. In kind it is functional.
A further assay concerns the target Hexokinase (Trypanosoma brucei, UniProt Q38C41). Kind of assay: Confirmation assay for inhibitors of Trypanosoma brucei hexokinase 1-Analogue-first series. [Related pubchem assays (depositor defined):AID1430, AID1632, AID2516, AID2560, AID2579, AID2600, AID449725, AID492951]. In kind it is functional.
In assay [12] the test system is HEK293. Kind of assay: cells. Conditions: Homo sapiens. In kind it is functional, cell-based.
The target of a further assay is Nonstructural protein 1 (Influenza A virus, UniProt Q194T2). In kind it is functional, Influenza A virus (A/California/07/2009(H1N1)).
Another assay has as its system INS1. Briefly: INS-1E survival protection against cytokine death – cell-based, luminescence, retest, dose response (AID 449756).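 Note: cell death triggered by IL-1 beta plus TNF-alpha plus IFN-gamma mixture; protective hits raise ATP signal compared with cytokine alone wells.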 Conditions: Rattus norvegicus. The assay is classed as functional.
Assay [13] in a line: luciferase reporter signal suppression in cells – H4 neuroglioma cells, luminescence, dose response (AID 1990). In kind it is functional, cell-based.
Assay [14] concerns the target T5, Kappa-type opioid receptor. The assay is classed as functional.
Assay [15] has as its target T5, Kappa-type opioid receptor. In kind it is functional. This is another data set of the same source.
Assay [16] has as its system Vero. Briefly: cells. To be noted: Chlorocebus sabaeus, Vero. In kind it is functional, cell-based, Chlorocebus sabaeus.
Assay [17] is described as follows: alpha-synuclein stem-loop luciferase translation blockers – H4 neuroglioma cells, luminescence, confirmation (AID 1988). The assay is classed as functional, cell-based.
A short description of assay [18]: Luminescence Cell-Based Dose Response HTS to Identify Inhibitors of 5'UTR Stem-Loop Driven Prion Protein mRNA Translation in H4 Neuroglioblastoma Cells. [Related pubchem assays: 1827 (Project Summary), 1813 (Primary HTS)]. The assay is classed as functional.
Assay [19] has as its system Streptococcus sp. 'group A'. Briefly: Streptococcus pyogenes SK(-)GAS viability under kanamycin – luminescence, BacTiterGlo, confirmation, counter-screen for streptokinase expression inhibitor project, dose response (AID 1900). The assay is classed as functional, organism-based.
Assay [20] is described as follows: A Cell Based Secondary Assay To Explore Cytotoxicity of Compounds that Sensitize Mycobacterium Tuberculosis to Beta-Lactam Antibiotics. The assay is classed as functional.
For assay [21], the system named is HEK293. Kind of assay: inhibition of NOD1-driven NF-kB reporter – cell-based, luminescence, uHTS, primary screen (AID 1578). The assay is classed as functional. Conditions: Homo sapiens.
The subject of assay [22] is HEK293. Kind of assay: cells. In kind it is functional, cell-based. To be noted: Homo sapiens. The source holds these as a separate data set.
In assay [23] the test system is HEK293. Briefly: cells. The assay is classed as functional, cell-based. To be noted: Homo sapiens. The source holds these as a separate data set.
The subject of assay [24] is Vero. Briefly: cells. Conditions: Chlorocebus sabaeus, Vero. In kind it is functional, Chlorocebus sabaeus.
For assay [25], the target named is Nucleotide-binding oligomerization domain-containing protein 2 (Homo sapiens, UniProt Q9HC29). Briefly: inhibition of NOD2-driven NF-kB reporter – cell-based, luminescence, uHTS, HEK293 (AID 1566). In kind it is functional.
Assay [26] has as its system HEK293. Briefly: NOD2 signaling inhibitors in MDP-stimulated cells, cell-based, uHTS, luminescence (AID 2001). In kind it is functional. To be noted: Homo sapiens.
The target in assay [27] is T1, Beta-galactosidase. In kind it is functional.
The test system of the next assay is Streptococcus. Kind of assay: GAS UMAA2166 growth inhibition – luminescence, BacTiterGlo, counter-screen for streptokinase expression inhibitor project, dose response (AID 1915).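 Note: potency for reduction of bacterial viability or growth.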 The assay is classed as functional, organism-based.

The structures appear in SMILES notation. Active and inactive are the calls of the source.

T5 sequence (P41145 whole entry): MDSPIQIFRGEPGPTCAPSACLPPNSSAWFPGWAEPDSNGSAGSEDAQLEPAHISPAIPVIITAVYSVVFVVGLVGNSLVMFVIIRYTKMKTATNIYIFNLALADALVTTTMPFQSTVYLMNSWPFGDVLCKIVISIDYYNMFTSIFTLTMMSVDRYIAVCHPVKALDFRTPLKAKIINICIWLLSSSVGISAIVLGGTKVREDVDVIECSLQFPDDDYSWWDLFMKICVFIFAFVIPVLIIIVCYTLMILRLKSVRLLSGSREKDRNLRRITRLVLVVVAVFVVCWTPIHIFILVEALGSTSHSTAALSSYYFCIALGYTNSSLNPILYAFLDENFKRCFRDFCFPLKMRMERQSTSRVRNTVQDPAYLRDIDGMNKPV
T3 sequence (P98170 whole entry): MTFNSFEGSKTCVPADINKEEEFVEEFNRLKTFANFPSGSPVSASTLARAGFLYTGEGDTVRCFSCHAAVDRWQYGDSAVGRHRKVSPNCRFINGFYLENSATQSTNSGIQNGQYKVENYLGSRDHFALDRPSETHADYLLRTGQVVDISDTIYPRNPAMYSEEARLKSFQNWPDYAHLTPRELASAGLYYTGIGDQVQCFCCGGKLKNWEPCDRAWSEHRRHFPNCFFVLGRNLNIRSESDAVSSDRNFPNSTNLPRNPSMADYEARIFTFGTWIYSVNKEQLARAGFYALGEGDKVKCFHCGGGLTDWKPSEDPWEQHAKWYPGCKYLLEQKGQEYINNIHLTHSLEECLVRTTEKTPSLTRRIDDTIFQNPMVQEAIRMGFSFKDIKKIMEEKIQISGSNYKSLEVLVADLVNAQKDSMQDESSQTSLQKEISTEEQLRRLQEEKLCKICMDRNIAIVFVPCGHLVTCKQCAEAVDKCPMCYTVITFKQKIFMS
Delta-type opioid receptor, sequence (P41143 whole entry): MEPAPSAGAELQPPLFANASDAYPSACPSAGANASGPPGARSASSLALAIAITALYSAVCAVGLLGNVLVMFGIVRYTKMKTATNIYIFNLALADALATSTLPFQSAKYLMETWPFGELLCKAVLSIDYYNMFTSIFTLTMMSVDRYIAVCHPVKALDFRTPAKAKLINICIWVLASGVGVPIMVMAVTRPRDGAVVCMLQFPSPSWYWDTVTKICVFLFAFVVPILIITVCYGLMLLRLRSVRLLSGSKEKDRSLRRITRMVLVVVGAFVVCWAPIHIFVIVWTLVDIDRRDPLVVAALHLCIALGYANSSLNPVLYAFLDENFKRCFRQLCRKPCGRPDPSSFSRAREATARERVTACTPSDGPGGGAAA
T4 sequence (P49327 whole entry): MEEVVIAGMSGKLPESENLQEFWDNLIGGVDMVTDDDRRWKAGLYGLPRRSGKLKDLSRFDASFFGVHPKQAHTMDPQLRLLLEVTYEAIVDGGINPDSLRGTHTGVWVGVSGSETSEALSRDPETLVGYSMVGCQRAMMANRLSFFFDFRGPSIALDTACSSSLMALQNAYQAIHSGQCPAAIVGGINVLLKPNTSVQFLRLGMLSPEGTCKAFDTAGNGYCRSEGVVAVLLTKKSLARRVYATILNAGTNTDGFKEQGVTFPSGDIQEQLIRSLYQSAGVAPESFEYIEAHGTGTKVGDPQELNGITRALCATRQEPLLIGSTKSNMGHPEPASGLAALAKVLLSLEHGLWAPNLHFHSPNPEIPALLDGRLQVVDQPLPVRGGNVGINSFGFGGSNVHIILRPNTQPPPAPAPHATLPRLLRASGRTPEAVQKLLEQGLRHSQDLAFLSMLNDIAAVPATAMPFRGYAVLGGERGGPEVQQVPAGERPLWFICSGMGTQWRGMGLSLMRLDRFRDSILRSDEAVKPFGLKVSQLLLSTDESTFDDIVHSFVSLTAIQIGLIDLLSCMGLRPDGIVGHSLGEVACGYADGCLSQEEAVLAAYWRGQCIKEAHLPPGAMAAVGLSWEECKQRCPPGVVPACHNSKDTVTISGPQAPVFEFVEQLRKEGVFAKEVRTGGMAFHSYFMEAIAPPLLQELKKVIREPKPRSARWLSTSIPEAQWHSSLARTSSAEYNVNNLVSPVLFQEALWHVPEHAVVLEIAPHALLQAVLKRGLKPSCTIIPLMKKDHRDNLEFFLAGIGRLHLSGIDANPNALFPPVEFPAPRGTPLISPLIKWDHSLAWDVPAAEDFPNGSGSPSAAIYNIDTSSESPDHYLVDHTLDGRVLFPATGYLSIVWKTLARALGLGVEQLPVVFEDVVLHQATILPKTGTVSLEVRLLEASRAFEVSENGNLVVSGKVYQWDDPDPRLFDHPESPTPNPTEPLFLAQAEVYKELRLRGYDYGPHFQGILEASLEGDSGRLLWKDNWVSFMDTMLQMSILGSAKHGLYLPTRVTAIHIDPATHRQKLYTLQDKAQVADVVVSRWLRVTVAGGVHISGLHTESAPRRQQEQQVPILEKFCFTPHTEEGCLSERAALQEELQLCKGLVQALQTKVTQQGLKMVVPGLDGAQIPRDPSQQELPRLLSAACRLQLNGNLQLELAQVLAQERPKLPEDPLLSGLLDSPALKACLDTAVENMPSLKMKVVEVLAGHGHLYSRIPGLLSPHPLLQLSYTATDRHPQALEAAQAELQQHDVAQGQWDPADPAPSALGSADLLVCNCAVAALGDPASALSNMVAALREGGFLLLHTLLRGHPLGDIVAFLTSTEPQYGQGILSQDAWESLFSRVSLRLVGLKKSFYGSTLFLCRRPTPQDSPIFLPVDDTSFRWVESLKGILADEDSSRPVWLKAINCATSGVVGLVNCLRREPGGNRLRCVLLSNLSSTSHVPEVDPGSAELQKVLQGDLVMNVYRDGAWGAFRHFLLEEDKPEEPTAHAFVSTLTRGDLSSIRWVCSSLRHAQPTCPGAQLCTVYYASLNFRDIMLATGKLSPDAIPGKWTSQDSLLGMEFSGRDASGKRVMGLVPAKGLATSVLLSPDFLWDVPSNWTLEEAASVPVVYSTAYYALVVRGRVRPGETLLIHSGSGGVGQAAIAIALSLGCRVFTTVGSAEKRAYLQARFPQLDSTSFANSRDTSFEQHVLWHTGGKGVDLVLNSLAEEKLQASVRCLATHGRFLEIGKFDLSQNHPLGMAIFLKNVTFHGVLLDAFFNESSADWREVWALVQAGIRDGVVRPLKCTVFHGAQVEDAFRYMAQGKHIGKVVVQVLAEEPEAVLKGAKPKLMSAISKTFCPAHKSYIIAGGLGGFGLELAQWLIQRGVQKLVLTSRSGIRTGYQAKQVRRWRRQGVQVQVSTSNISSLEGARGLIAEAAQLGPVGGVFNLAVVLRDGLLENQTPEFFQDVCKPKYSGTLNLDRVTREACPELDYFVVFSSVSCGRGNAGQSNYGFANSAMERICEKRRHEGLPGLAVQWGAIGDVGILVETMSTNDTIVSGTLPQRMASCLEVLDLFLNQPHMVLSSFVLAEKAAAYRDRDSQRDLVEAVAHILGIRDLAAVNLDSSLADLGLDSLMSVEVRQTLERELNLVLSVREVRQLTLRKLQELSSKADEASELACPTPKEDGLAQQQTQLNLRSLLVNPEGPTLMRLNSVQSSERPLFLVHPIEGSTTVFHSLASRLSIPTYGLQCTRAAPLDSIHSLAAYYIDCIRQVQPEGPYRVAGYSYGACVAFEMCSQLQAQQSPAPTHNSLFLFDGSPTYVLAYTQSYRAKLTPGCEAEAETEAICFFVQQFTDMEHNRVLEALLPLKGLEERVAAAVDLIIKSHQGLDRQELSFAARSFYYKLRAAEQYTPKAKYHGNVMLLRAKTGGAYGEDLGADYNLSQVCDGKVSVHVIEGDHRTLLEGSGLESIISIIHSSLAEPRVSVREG
Mu-type opioid receptor, sequence (P35372 whole entry): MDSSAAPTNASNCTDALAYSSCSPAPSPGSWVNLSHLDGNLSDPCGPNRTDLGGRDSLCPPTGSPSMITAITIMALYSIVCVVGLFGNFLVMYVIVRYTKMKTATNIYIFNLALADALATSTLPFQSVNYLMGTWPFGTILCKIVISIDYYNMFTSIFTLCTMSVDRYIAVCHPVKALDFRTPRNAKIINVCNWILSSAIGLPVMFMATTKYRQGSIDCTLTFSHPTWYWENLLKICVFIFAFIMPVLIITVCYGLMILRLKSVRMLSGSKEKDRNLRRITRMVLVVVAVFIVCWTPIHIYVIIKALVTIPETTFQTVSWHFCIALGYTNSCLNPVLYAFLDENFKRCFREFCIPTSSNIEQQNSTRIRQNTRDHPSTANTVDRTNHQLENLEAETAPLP
Hexokinase, sequence (Q38C41 whole entry): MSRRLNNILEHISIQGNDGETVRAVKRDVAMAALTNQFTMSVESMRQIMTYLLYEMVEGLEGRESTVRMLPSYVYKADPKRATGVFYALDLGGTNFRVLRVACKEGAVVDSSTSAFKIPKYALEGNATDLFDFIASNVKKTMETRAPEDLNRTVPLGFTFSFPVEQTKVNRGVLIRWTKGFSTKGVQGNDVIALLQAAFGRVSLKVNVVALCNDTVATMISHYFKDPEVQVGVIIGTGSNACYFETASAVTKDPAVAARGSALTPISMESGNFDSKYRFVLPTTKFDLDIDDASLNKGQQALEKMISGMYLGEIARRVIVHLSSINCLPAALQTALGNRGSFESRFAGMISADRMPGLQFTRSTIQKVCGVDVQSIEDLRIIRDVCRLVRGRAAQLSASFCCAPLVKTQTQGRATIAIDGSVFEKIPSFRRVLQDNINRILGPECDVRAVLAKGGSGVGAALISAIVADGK
Nonstructural protein 1, sequence (Q194T2 whole entry): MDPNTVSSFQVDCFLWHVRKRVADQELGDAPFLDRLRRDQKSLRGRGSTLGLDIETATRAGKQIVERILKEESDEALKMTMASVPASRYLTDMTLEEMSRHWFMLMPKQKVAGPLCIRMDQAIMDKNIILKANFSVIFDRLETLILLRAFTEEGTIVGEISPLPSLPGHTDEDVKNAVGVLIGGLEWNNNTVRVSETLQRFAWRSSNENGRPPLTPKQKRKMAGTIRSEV
Bcl-2-related protein A1, sequence (Q07440 whole entry): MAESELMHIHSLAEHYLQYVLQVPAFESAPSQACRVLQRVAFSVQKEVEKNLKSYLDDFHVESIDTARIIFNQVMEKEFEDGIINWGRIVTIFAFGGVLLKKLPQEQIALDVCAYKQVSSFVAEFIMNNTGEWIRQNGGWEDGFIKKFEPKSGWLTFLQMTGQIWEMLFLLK

Regarding `Cc1ccc(N(C(=O)c2snc(C(N)=O)c2N)C(C(=O)NC2CCCC2)c2ccc(C)o2)cc1` (stereo not given), the IC50 (in general, the midpoint of a concentration-inhibition curve) is > 80 µM (inactive) at Beta-galactosidase [1], > 20 µM (inactive) at Bcl-2-related protein A1, 10.4 µM (active) in assay [2] and 19.9 µM (active) in assay [3].
As for `O=C(O)C1C2C=CC(C2)C1C(=O)Nc1ccc(C(=O)N2CCCCC2)cc1` (stereo not given), the IC50 in assay [4] was > 100 µM (not active); in [5], > 100 µM (inactive).
On to `COc1ccc(CCC(=O)OCC(=O)Nc2ccc(C)c(S(=O)(=O)N(C)C)c2)cc1`, for which the IC50 in assay [4] is > 100 µM (not active); in assay [5], > 100 µM (inactive).
As for `CCS(=O)(=O)c1ccc(-c2csc(-c3ccc(Cl)cc3)n2)c(Cl)c1Cl`, the values for the IC50 (on Fatty acid synthase [6]; on Fatty acid synthase [7]; in assay [8]) were 1.86 µM (active), 2.71 µM (active) and 5.51 µM (active), respectively.
For `Cc1ccc(CN(CCNC(=O)c2ccc(CNS(=O)(=O)c3cccc(C)c3)cc2)C(C)C)cc1`, the IC50 in [9] is > 32 µM (inactive); in assay [10] it was 0.675 µM (active); in assay [11] it was 1.83 µM (active); at Mu-type opioid receptor, > 32 µM (inactive).
Take `CN(C)c1ccc(C(=O)Nc2cc(Cl)ccc2C(=O)O)cc1`: at Hexokinase, the IC50 is > 25 µM (inactive).
In the case of `COc1ccc(S(=O)(=O)NCc2ccc(C(=O)NCCN3Cc4ccccc4C3)cc2)cc1`, the IC50 is > 32 µM (inactive) in assay [9], > 32 µM (inactive) in assay [10], > 20 µM (inactive) in assay [11] and > 32 µM (inactive) at Mu-type opioid receptor.
As to `O=C(Cn1sc2ccccc2c1=O)NC1CCCCC1`, the IC50 at Hexokinase is 9.35 µM (active).
For `C/C(=N\NC(=O)c1cc(Br)ccc1O)c1ccccn1`, the IC50 in the assay with HEK293 [12] is 17.6 µM (active); at Nonstructural protein 1, 30.4 µM (active); in [14], > 32 µM; in assay [15], 3.54 µM (active); in the assay on Vero [16], > 25 µM (active); with HEK293 [22], > 20 µM (inactive). The figures for the IC50 with HEK293 [23] and in the assay on HEK293 [26] were > 20 µM (inactive) and 6.47 µM (inactive), respectively. Moreover, the AC50 – broadly, the midpoint of the concentration-response curve, whichever way the signal moves – in the assay with INS1 was 1.74 µM (active). The EC50 – broadly, the concentration giving half of the maximal effect – was 10.2 µM (inconclusive) in assay [13]; 5.29 µM (active) in assay [17]; 10.3 µM (active) in assay [18]; 0.43 µM (active) in assay [19]; > 20 µM (inactive) in the assay on HEK293 [21]; > 20 µM (inactive) in assay [25]. The EC50 at Beta-galactosidase [27] is > 31.5 µM (inactive); in the assay on Streptococcus it was 3.7 µM (active). Besides, the CC50 – broadly, the concentration that lowers cell viability or growth by half – in assay [20] is 3.47 µM (active); with Vero [24], 3.81 µM (active).
